The source of these data is ChEMBL document CHEMBL4402522, “Exploring the new horizons of drug repurposing: A vital tool for turning hard work into smart work” (2019).

The test system of assay [1] is C6. Kind of assay: Antitumour activity against rat C6 cells implanted in Wistar rat assessed as reduction in reactive astrocytes induced areas of blood vessels at 25 mg/kg, ip administered on alternate days in total 3 doses and measured on day 7 co-treated with temozolomide by immunohistochemical analysis relative to control. The format is functional. Set-up: scale not given: the % may be the effect or the level left.

Assay [2] concerns C6. Kind of assay: Antitumour activity against rat C6 cells implanted in Wistar rat assessed as reduction in reactive astrocytes induced peri-tumoral areas at 25 mg/kg, ip administered on alternate days in total 3 doses and measured on day 7 co-treated with temozolomide by immunohistochemical analysis relative to control. It counts as functional. Set-up: scale not given: the % may be the effect or the level left.

For `CC[C@H](CO)Nc1nc(NCc2ccccc2)c2ncn(C(C)C)c2n1` [SELICICLIB], the Activity in the assay with C6 [1] and in the assay on C6 [2] was 100% throughout.
